From patent US20260317304A1, “TEAD INHIBITORS AND METHODS OF USE” (Sporos BioDiscovery, Inc., priority 2022, published 2026) come the findings set out here.

For the experiment, the system named is MSTO-211H xenograft. As to the kind of experiment: Mouse xenograft MSTO-211H tumors, study part 3. The class given is in vivo, BALB/c nude mice. As to conditions: PO. The text has this: This study evaluated the in vivo anti-tumor efficacy of test compounds in BALB/c nude mice for treatment of MSTO-211H xenograft of lung cancer.
• Species: Mus Musculus • Strain: BALB/c nude • Age: 6-8 weeks • Sex: female • Body weight: 18-22 g • Number of animals inoculated with tumor: 80 mice • Number of animals enrolled in the treatment: 36 mice • Number of unenrolled animals: 44 mice • Animal supplier: Beijing Vital River Biotechnology Experimental Animal Co. Ltd Certification number: 20170011010591
The MSTO-211H tumor cells were maintained in RPMI 1640 medium supplemented with 10% Fetal bovine serum and 1% Antibiotic-Antimycotic at 37° C. in an atmosphere of 5% CO2 in air. The tumor cells were routinely subcultured twice weekly by trypsin-EDTA. The cells growing in an exponential growth phase with 95% cell survival or above were harvested, and counted for tumor inoculation.
Each mouse was inoculated subcutaneously at the right flank with MSTO-211H tumor cells (5×10^6+50% matrigel/0.2 mL) for tumor development. Animals were marked with earrings with unique 6 significant figure number for identification. The treatments of part 1 were started on day 5 after cell inoculation when the average tumor volume reached 181 mm^3. The treatments of part 2 were started on day 16 after cell inoculation when the average tumor volume reached 254 mm^3. The treatments of part 3 were started on day 33 after cell inoculation when the average tumor volume reached 969 mm^3.
The major endpoint was to determine if the tumor growth could be delayed. Tumor volume was measured twice a week in two dimensions using a caliper, and the volume was expressed in mm^3 using the formula: V=0.5 a×b^2 where a and b are the long and short diameters of the tumor, respectively. The tumor size was then used for calculations of T/C value. The TGI value (in percent) or the T/C value (in percent) is an indication of antitumor effectiveness; T and C are the mean tumor volumes or tumor weights of the treated and control groups, respectively, on a given day.
TGI was calculated for each group using the formula: TGI (%)=[1−(Ti−T0)/(Vi−V0)]×100; Ti is the average tumor volume of a treatment group on a given day, T0 is the average tumor volume of the treatment group on the day of treatment start, Vi is the average tumor volume of the vehicle control group on the same day with Ti, and V0 is the average tumor volume of the vehicle group on the day of treatment start.
Relative T/C (%)=TRTV/CRTV×100 (RTV (%)=Vt/V0×100, Vt is the average tumor volume on a given day, V0 is the average tumor volume on the first day of treatment. TRTV is the RTV of a treatment group, and the CRTV is the RTV of the vehicle control group.)
The antitumor effectiveness of part 3 study was analyzed on PG-D13 when vehicle group reached 1791 mm^3.
Summary statistics, including mean and the standard error of the mean (SEM), were provided for the tumor volume of each group at each time point.
Statistical analysis of difference in tumor volume among the groups was conducted on the data obtained at the end of the study.
One-tailed T test was performed to compare tumor volumes between two groups. All data are analyzed using GraphPad Prism 6.0. p<0.05 is considered to be statistically significant.

Setting [1] is: part 3, day 13, 12.5 mg/kg, BID.

What is called T/C is the ratio of treated to control.

Each structure is given as a SMILES string.

On to `Cn1nnc(-c2cc([C@]3(C)CCNC3=O)ccc2Nc2ccc(C(F)(F)F)cc2)n1` (stereo in doubt) [Compound 20, 3-methyl-3-(3-(2-methyl-2H-tetrazol-5-yl)-4-((4-(trifluoromethyl)phenyl)amino)phenyl) pyrrolidin-2-one], for which the Tumor size runs as follows: (part 3, day 0, 12.5 mg/kg, BID) 963 ± 136 mm^3; (part 3, day 3, 12.5 mg/kg, BID) 740 ± 122 mm^3; (part 3, day 6, 12.5 mg/kg, BID) 591 ± 61 mm^3; (part 3, day 10, 12.5 mg/kg, BID) 444 ± 36 mm^3; under setting [1], 339 ± 51 mm^3. The molecule further displayed a T/C under setting [1] of 18.94%. Besides, the TGI under setting [1] stood at 177.56%. Further, the “Tumor Volume” value (part 3, day 13, 12.5 mg/kg, BID (Table 18)) stood at 339 ± 51 mm^3.
